Assay results: ChEMBL document CHEMBL1255173, “Dihydro-resveratrol--a potent dietary polyphenol” (Bioorg Med Chem Lett, 2010)
Active and inactive are the calls of the source. The calls are words filed in the database; no cut-off is given here.

Assays:
Type in all cases: functional, cell-based
K562 = test: Cytotoxicity against human K562 cells after 48 hrs by MTT assay; details: K562, 48 h
MDA-MB-231 = test: Cytotoxicity against human MDA-MB-231 cells after 48 hrs by MTT assay
BT-474 = test: Cytotoxicity against human BT474 cells after 48 hrs by MTT assay
MCF7 = test: Cytotoxicity against human MCF7 cells after 48 hrs by MTT assay; details: MCF7, 48 h

SMILES	IC50 (K562) [µM]	Activity (MDA-MB-231)	Activity (BT-474)	IC50 (MCF7) [µM]
Oc1ccc(CCc2cc(O)cc(O)c2)cc1 [DIHYDRORESVERATROL]	< 1	inactive	inactive	–
O=c1c(-c2ccc(O)cc2)coc2cc(O)cc(O)c12 [GENISTEIN]	–	–	–	1
